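Test compounds were applied to cells in 96-well plates for 48 hours at 5 doses. Abbreviation: GI50, concentration required for 50% inhibition of growth.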 The source made the active and inactive calls. Rule as the data show it: active = GI50 up to about 1.1 µM and inactive = higher.
Key:
Assay in all cases: inhibition of tumour cell growth, NCI panel, 48 h
A498 = test system: A498
BT-549 = test system: BT-549
CAKI-1 = test system: CAKI-1
HOP-92 = test system: HOP-92
IGROV-1 = test system: IGROV-1
K562 = test system: K562
LOX IMVI = test system: LOX IMVI
MCF7 = test system: MCF7
NCI-H23 = test system: NCI-H23
SF-268 = test system: SF-268
SF-295 = test system: SF-295
SF-539 = test system: SF-539
SK-MEL-2 = test system: SK-MEL-2
SK-MEL-5 = test system: SK-MEL-5
SNB-19 = test system: SNB-19
SNB-75 = test system: SNB-75
SW-620 = test system: SW-620
U-251 = test system: U-251
UACC-62 = test system: UACC-62
CCRF-CEM = test system: CCRF-CEM

SMILES | GI50 (A498) | GI50 (BT-549) | GI50 (CAKI-1) | GI50 (HOP-92) | GI50 (IGROV-1) | GI50 (K562) | GI50 (LOX IMVI) | GI50 (MCF7) | GI50 (NCI-H23) | GI50 (SF-268) | GI50 (SF-295) | GI50 (SF-539) | GI50 (SK-MEL-2) | GI50 (SK-MEL-5) | GI50 (SNB-19) | GI50 (SNB-75) | GI50 (SW-620) | GI50 (U-251) | GI50 (UACC-62) | GI50 (CCRF-CEM)
S=C(CSc1ccccc1)Nc1cccc2ccccc12 | 23.1 µM (inactive) | 51.6 µM (inactive) | 59 µM (inactive) | 56.2 µM (inactive) | 72.8 µM (inactive) | 40.2 µM (inactive) | 50.6 µM (inactive) | 33.8 µM (inactive) | 41.4 µM (inactive) | 61.1 µM (inactive) | 23.8 µM (inactive) | 28.4 µM (inactive) | 24.3 µM (inactive) | 18.5 µM (inactive) | 76.9 µM (inactive) | > 100 µM (inactive) | 55 µM (inactive) | 38.8 µM (inactive) | 32.7 µM (inactive) | –
CN(C)CCCNc1c2c(nc3ccc(Cl)cc13)CCCC2 | 18 µM (inactive) | 18.1 µM (inactive) | 23.3 µM (inactive) | 10.3 µM (inactive) | 12.7 µM (inactive) | 0.492 µM (active) | 11.9 µM (inactive) | 12.1 µM (inactive) | 15.8 µM (inactive) | 13.2 µM (inactive) | 14.5 µM (inactive) | 13.5 µM (inactive) | 19.3 µM (inactive) | 14.4 µM (inactive) | 19.1 µM (inactive) | 15.7 µM (inactive) | 9.75 µM (inactive) | 14.9 µM (inactive) | 16.9 µM (inactive) | 3.93 µM (inactive)
CCOC(=O)c1c(-c2ccccc2)oc(=O)c(Cc2cccc3cccnc23)c1-c1ccccc1 | > 10 µM (inactive) | > 10 µM (inactive) | > 10 µM (inactive) | > 10 µM (inactive) | > 10 µM (inactive) | > 10 µM (inactive) | > 10 µM (inactive) | > 10 µM (inactive) | > 10 µM (inactive) | > 10 µM (inactive) | > 10 µM (inactive) | > 10 µM (inactive) | > 10 µM (inactive) | > 10 µM (inactive) | > 10 µM (inactive) | > 10 µM (inactive) | > 10 µM (inactive) | > 10 µM (inactive) | > 10 µM (inactive) | > 10 µM (inactive)
N#Cc1c(C#N)c(-c2ccco2)n(-c2ccccc2)c1N | > 100 µM (inactive) | 40.1 µM (inactive) | > 100 µM (inactive) | 49.8 µM (inactive) | > 100 µM (inactive) | > 100 µM (inactive) | > 100 µM (inactive) | 5.94 µM (inactive) | > 100 µM (inactive) | 51.9 µM (inactive) | > 100 µM (inactive) | 38.5 µM (inactive) | > 100 µM (inactive) | > 100 µM (inactive) | 39.2 µM (inactive) | 26.5 µM (inactive) | > 100 µM (inactive) | 35.5 µM (inactive) | > 100 µM (inactive) | > 100 µM (inactive)
O=C(/C=C/c1ccc(O)c(O)c1)c1cc(O)cc(O)c1 | 18.9 µM (inactive) | 8.69 µM (inactive) | > 100 µM (inactive) | 13 µM (inactive) | 13.8 µM (inactive) | – | 5.42 µM (inactive) | 3.55 µM (inactive) | 12.3 µM (inactive) | 9.79 µM (inactive) | 19.7 µM (inactive) | 6.52 µM (inactive) | 13 µM (inactive) | > 100 µM (inactive) | 14.5 µM (inactive) | 12.2 µM (inactive) | – | 10.8 µM (inactive) | 12.9 µM (inactive) | 2 µM (inactive)
CSc1c(C#N)c(O)n(-c2ccc(Cl)cc2)c(=O)c1C#N | 45.2 µM (inactive) | > 100 µM (inactive) | 49.4 µM (inactive) | 30.8 µM (inactive) | > 100 µM (inactive) | 35.6 µM (inactive) | 14 µM (inactive) | 64.6 µM (inactive) | 91.2 µM (inactive) | > 100 µM (inactive) | – | > 100 µM (inactive) | > 100 µM (inactive) | > 100 µM (inactive) | > 100 µM (inactive) | > 100 µM (inactive) | 61 µM (inactive) | > 100 µM (inactive) | 44.6 µM (inactive) | –
COC(=O)C(Cc1ccccc1)NC(=O)c1ccc(CNC(=S)NCc2cccc(CNC(=S)NCc3ccccc3)c2)cc1 (configuration not stated) | > 62.5 µM (inactive) | > 33.9 µM (inactive) | > 36.4 µM (inactive) | > 32 µM (inactive) | > 31.7 µM (inactive) | > 32.8 µM (inactive) | > 35.6 µM (inactive) | > 32.8 µM (inactive) | > 35.4 µM (inactive) | 18.3 µM (inactive) | > 33.4 µM (inactive) | > 62.5 µM (inactive) | > 33.3 µM (inactive) | > 32.6 µM (inactive) | > 33.3 µM (inactive) | 13.4 µM (inactive) | > 32.9 µM (inactive) | > 33.5 µM (inactive) | > 34.6 µM (inactive) | > 34 µM (inactive)
C[C@]12CCC(=O)[C@@H](CCC3=CC(=O)C=CC3=O)[C@@H]1CCC2=O | 17.5 µM (inactive) | 11 µM (inactive) | 12.7 µM (inactive) | 14.2 µM (inactive) | – | 2.14 µM (inactive) | 11 µM (inactive) | 13.9 µM (inactive) | 12.5 µM (inactive) | 14.3 µM (inactive) | 17.8 µM (inactive) | 11.4 µM (inactive) | 11.7 µM (inactive) | 6.32 µM (inactive) | 41.5 µM (inactive) | 5.48 µM (inactive) | 18.2 µM (inactive) | 20.7 µM (inactive) | 16.6 µM (inactive) | 1.87 µM (inactive)
C=C1CC(COc2ccc3c(C)cc(=O)oc3c2)(c2ccccc2)OC1=O (configuration not stated) | 2.64 µM (inactive) | 1.74 µM (inactive) | 1.64 µM (inactive) | 0.394 µM (active) | 1.84 µM (inactive) | 0.356 µM (active) | 1.26 µM (inactive) | 1.13 µM (inactive) | 2.34 µM (inactive) | 5.33 µM (inactive) | 6.85 µM (inactive) | 2.45 µM (inactive) | 1.4 µM (inactive) | 2.2 µM (inactive) | 15.2 µM (inactive) | 6.95 µM (inactive) | 0.646 µM (active) | 10.4 µM (inactive) | 1.61 µM (inactive) | 0.281 µM (active)
Cc1cn(S(=O)(=O)c2ccccc2)c2c(OCc3ccccc3)cc([N+](=O)[O-])cc12 | 30.6 µM (inactive) | > 100 µM (inactive) | > 100 µM (inactive) | 74 µM (inactive) | 71 µM (inactive) | > 100 µM (inactive) | > 100 µM (inactive) | 32.4 µM (inactive) | 96.8 µM (inactive) | > 100 µM (inactive) | 27.9 µM (inactive) | > 100 µM (inactive) | 62.4 µM (inactive) | 6.17 µM (inactive) | 56.4 µM (inactive) | 25.3 µM (inactive) | 63 µM (inactive) | 31 µM (inactive) | 21.3 µM (inactive) | > 100 µM (inactive)
O=C(NC12CC3CC(CC(C3)C1)C2)n1cnc2c(Cl)ncnc21 | > 100 µM (inactive) | 31.3 µM (inactive) | > 100 µM (inactive) | 34.2 µM (inactive) | 18.5 µM (inactive) | 25.8 µM (inactive) | 18.7 µM (inactive) | > 100 µM (inactive) | 22.7 µM (inactive) | 22.6 µM (inactive) | 59.8 µM (inactive) | 42.6 µM (inactive) | 28.3 µM (inactive) | 24.2 µM (inactive) | > 100 µM (inactive) | 27.4 µM (inactive) | 37 µM (inactive) | 27.2 µM (inactive) | 81.1 µM (inactive) | 7.71 µM (inactive)
CC(C)C12CCC3(CCC4C(C)(C(=O)O)CCCC4(C)C3C1)C(CN)C2 (configuration not stated) | 28.8 µM (inactive) | 38.5 µM (inactive) | 35.4 µM (inactive) | 55.6 µM (inactive) | 53.2 µM (inactive) | – | 18.7 µM (inactive) | 29.5 µM (inactive) | 25.6 µM (inactive) | 54.8 µM (inactive) | 51.2 µM (inactive) | 28.2 µM (inactive) | 42.9 µM (inactive) | 27.7 µM (inactive) | 39 µM (inactive) | 88.5 µM (inactive) | 35.4 µM (inactive) | 31.4 µM (inactive) | 32.4 µM (inactive) | 0.388 µM (active)
C=CCc1cccc2cc(C(=O)Nc3ccccc3)c(=N)oc12 | 23.2 µM (inactive) | > 100 µM (inactive) | 63.2 µM (inactive) | > 100 µM (inactive) | 33.2 µM (inactive) | 64 µM (inactive) | > 100 µM (inactive) | 7.11 µM (inactive) | 79.8 µM (inactive) | > 100 µM (inactive) | – | 28.2 µM (inactive) | 8.47 µM (inactive) | 21.7 µM (inactive) | > 100 µM (inactive) | 52.4 µM (inactive) | > 100 µM (inactive) | > 100 µM (inactive) | 41.1 µM (inactive) | > 100 µM (inactive)
CC(OP(=O)(O)O)C(N)C(=O)O (configuration not stated) | > 100 µM (inactive) | > 100 µM (inactive) | > 100 µM (inactive) | > 100 µM (inactive) | > 100 µM (inactive) | > 100 µM (inactive) | > 100 µM (inactive) | > 100 µM (inactive) | > 100 µM (inactive) | > 100 µM (inactive) | > 100 µM (inactive) | > 100 µM (inactive) | > 100 µM (inactive) | > 100 µM (inactive) | > 100 µM (inactive) | > 100 µM (inactive) | > 100 µM (inactive) | > 100 µM (inactive) | > 100 µM (inactive) | > 100 µM (inactive)

From ChEMBL document CHEMBL1201862, “PubChem BioAssay data set” (2004)
